Measured values taken from US20130177904A1, “ARNT ISOFORM 3 AS A PREDICTOR OF AMINOFLAVONE RESPONSIVENESS IN CANCER CELLS” (UNIVERSITY OF MARYLAND, BALTIMORE, priority 2010, published 2013).

Tests used:
CAKi1 = CAKi1 renal cell line, NIH dose response data; cited from earlier work
A496 = A496 renal cell line, NIH dose response data; cited from earlier work
[1] = tested on: gamma-H2AX in MDA-MBA-468; experiment: Western blot analysis for phosphorylated H2AX; type: cell-based, Human; conditions: MDA-MBA-468, AF for 24 hrs, FIG. 2B
Method: (§1) Western blot analysis for phosphorylated H2AX (γ-H2AX) was performed by first growing cells to between 50% and 80% confluence and treating them with concentrations of AF for 24 hrs, according to the concentration at which 50% of the proliferation was inhibited (IC50). Cells were collected and centrifuged at 1,000×g for 15 minutes at 4° C. Histones were released by the method described by Meng et al. (Cancer Res, 65(12):5337-43 (2005)). Briefly, pellets were washed twice in PBS, homogenized in 0.2 mol/L H2SO4, and centrifuged at 13,000×g. The supernatant was removed and 0.25 volume of 100% (w/v) trichloroacetic acid was added to precipitate the histones. Samples were then centrifuged again at 13,000×g for 15 mins at 4° C. The supernatant was removed and the remaining pellet was suspended in 100% ethanol overnight. A final centrifugation step was performed at 13,000×g for 15 mins at 4° C. The solute was then dissolved in nuclease-free water. Protein concentration was determined using the Bio-Rad Protein Assay (Bio-Rad, CA). 30 μg of protein was resolved on 4-20% Tris-glycine precast gels (Invitrogen). Proteins were transferred onto a PVDF membrane (Immobilon-P, Millipore) and then blocked with 5% milk in TBST (0.1% Tween-20 in 1× Tris-buffered saline—pH 7.4) for 1 hr. […]

[2] = tested on: gamma-H2AX in MDA-MBA-231; experiment: Western blot analysis for phosphorylated H2AX; type: cell-based, Human; conditions: MDA-MBA-231, AF for 24 hrs, FIG. 2B
Method: as §1

BT-549 = BT-549 breast cancer cell line, as determined by the NIH study; cited from earlier work
[3] = tested on: caspases 3/7 in MDA-MB-231; experiment: Caspase Glo-3/7 Assay; type: cell-based, Human; conditions: MDA-MB-231, relative to vehicle treated cells, FIG. 2C
Method: (§2) The Caspase Glo-3/7 Assay (Promega) was used to measure the combined activities of caspases-3 and -7. In brief, cells were seeded in a white-walled 96-well plate (Nunc) at a density of 2,000 cells/well and allowed to attach overnight. AF was added the following day in final concentrations of 0.1 nM to 100 μM in replicas of 8. Caspase activity was measured 5 days later by adding the Caspase Glo-3/7 reagent to the plate and incubating for another 2 hours. Caspase cleavage results in the release a substrate for luciferase that was measured using a LumiCount luminometer (Packard). Caspase activity levels were normalized to the amount of viable cells, determined by the CellTiter-Glo Luminescent Cell Viability Assay (Promega) performed in parallel to the caspase assay. Data analysis to obtain the mean and standard error as well as graphing employed Excel® (Microsoft Corporation).

caspases 3/7 in MCF7 = experiment: Caspase Glo-3/7 Assay; type: cell-based, Human; conditions: MCF7, relative to vehicle treated cells, FIG. 2C
Method: as §2

[4] = tested on: caspases 3/7 in MDA-MBA-468; experiment: Caspase Glo-3/7 Assay; type: cell-based, Human; conditions: MDA-MBA-468, relative to vehicle treated cells, FIG. 2C
Method: as §2

caspases 3/7 in T47D = experiment: Caspase Glo-3/7 Assay; type: cell-based, Human; conditions: relative to vehicle treated cells, FIG. 2C
Method: as §2

Cc1c(F)c(N)c2c(=O)cc(-c3ccc(N)c(F)c3)oc2c1F [AF, 5-amino-2-(4-amino-3-fluorophenyl)-6,8-difluoro-7-methylchromen-4-one]
AF sensitivity (CAKi1): AF sensitive
AF sensitivity (A496): AF sensitive
presence of gamma-H2AX (double stranded DNA breaks) [1]: observed
presence of gamma-H2AX (double stranded DNA breaks) [2]: not observed at all
AF sensitivity (BT-549): AF in-sensitive
Caspases 3 and 7 activity [3]: do not
induction of caspases 3/7 (combined activity) (caspases 3/7 in MCF7): not activated
induction of caspases 3/7 (combined activity) [4]: marked induction
induction of caspases 3/7 (combined activity) (caspases 3/7 in T47D): marked induction
